Source: ChEMBL document CHEMBL3885881, “DrugMatrix”

Species: Rattus norvegicus
Experiment: DrugMatrix - Regimen: Daily Repeat
Format: toxicity, organism-based, Sprague-Dawley
Set-up: regimen Daily Repeat, gender Male, age 6-8 weeks
Settings: in vivo, po, route oral GAVAGE, […]; for SODIUM / TOTAL BILIRUBIN / TOTAL PROTEIN / URIC ACID / ALANINE AMINOTRANSFERASE / ALBUMIN / ALKALINE PHOSPHATASE / ASPARTATE AMINOTRANSFERASE / BLOOD UREA NITROGEN / CARBON DIOXIDE / CHLORIDE / CHOLESTEROL / CREATINE PHOSPHOKINASE / CREATININE / GLUCOSE / LACTATE DEHYDROGENASE / LIPASE / PHOSPHORUS / POTASSIUM: tissue Plasma; for ABSOLUTE BASOPHIL / ABSOLUTE EOSINOPHIL / ABSOLUTE LYMPHOCYTE / ABSOLUTE MONOCYTE / ABSOLUTE SEGMENTED NEUTROPHIL / BASOPHIL / EOSINOPHIL / ERYTHROCYTE COUNT / HEMATOCRIT / HEMOGLOBIN / LEUKOCYTE COUNT / LYMPHOCYTE / MEAN CORPUSCULAR HEMOGLOBIN / MEAN CORPUSCULAR HEMOGLOBIN CONCENTRATION / MEAN CORPUSCULAR VOLUME / MONOCYTE / NEUTROPHIL / NUCLEATED RED BLOOD CELLS / PLATELET COUNT: tissue Blood
[1] = 12 mg/kg, 72 h, dose level M1, time 3 day
[2] = 12 mg/kg, 120 h, dose level M1, time 5 day
[3] = 75 mg/kg, 72 h, dose level M2, time 3 day
[4] = 75 mg/kg, 120 h, dose level M2, time 5 day

In the case of `C#C[C@]1(O)CC[C@H]2[C@@H]3CCC4=CC(=O)CC[C@@H]4[C@H]3CC[C@@]21C` [NORETHINDRONE], the SODIUM [1] is reported as 144.57 MEQ/L, the “TOTAL BILIRUBIN” value [1] is reported as 0.1 mg/dL and the “TOTAL PROTEIN” value [1] is reported as 6.07 G/DL. The “URIC ACID” value [1] was 1 mg/dL, the “ABSOLUTE BASOPHIL” value [2] was 0 CELLS/uL and the “ABSOLUTE EOSINOPHIL” value [2] was 35 CELLS/uL. The “ABSOLUTE LYMPHOCYTE” value [2] was 6197.67 CELLS/uL, the “ABSOLUTE MONOCYTE” value [2] was 151.67 CELLS/uL and the “ABSOLUTE SEGMENTED NEUTROPHIL” value [2] was 315.67 CELLS/uL. The BASOPHIL [2] was 0%, the EOSINOPHIL [2] was 0.67% and the “ERYTHROCYTE COUNT” value [2] was 6.19 x10E6/uL. The HEMATOCRIT [2] was 37.27%, the HEMOGLOBIN [2] was 14.27 G/DL and the “LEUKOCYTE COUNT” value [2] was 6.7 x10E3/uL. The LYMPHOCYTE [2] was 92.67%, the “MEAN CORPUSCULAR HEMOGLOBIN” value [2] was 23.1 pg and the “MEAN CORPUSCULAR HEMOGLOBIN CONCENTRATION” value [2] was 38.3 G/DL. The “MEAN CORPUSCULAR VOLUME” value [2] was 60.33 fL, the MONOCYTE [2] was 2% and the NEUTROPHIL [2] was 4.67%. The “NUCLEATED RED BLOOD CELLS” value [2] was 0 /100WBC, the “PLATELET COUNT” value [2] was 1179.67 x10E3/uL and the “ALANINE AMINOTRANSFERASE” value [2] was 68.33 u/L. For the same compound, the ALBUMIN [2] was 4.67 G/DL, the “ALKALINE PHOSPHATASE” value [2] was 474.33 u/L and the “ASPARTATE AMINOTRANSFERASE” value [2] was 95.67 u/L. For the same compound, the “BLOOD UREA NITROGEN” value [2] was 10 mg/dL, the “CARBON DIOXIDE” value [2] was 25.67 mmol/L and the CHLORIDE [2] was 106.67 MEQ/L. For the same compound, the CHOLESTEROL [2] was 26 mg/dL, the “CREATINE PHOSPHOKINASE” value [2] was 277.33 u/L and the CREATININE [2] was 0.25 mg/dL. The GLUCOSE [2] was 177.33 mg/dL, the “LACTATE DEHYDROGENASE” value [2] was 205 u/L and the LIPASE [2] was 8 u/L. The PHOSPHORUS [2] was 12.13 mg/dL, the POTASSIUM [2] was 5.86 MEQ/L and the SODIUM [2] was 149.4 MEQ/L. The “TOTAL BILIRUBIN” value [2] was 0.1 mg/dL, the “TOTAL PROTEIN” value [2] was 6.73 G/DL and the “URIC ACID” value [2] was 1.83 mg/dL. The “ABSOLUTE BASOPHIL” value [3] was 0 CELLS/uL, the “ABSOLUTE EOSINOPHIL” value [3] was 0 CELLS/uL and the “ABSOLUTE LYMPHOCYTE” value [3] was 4761.67 CELLS/uL. For the same compound, the “ABSOLUTE MONOCYTE” value [3] was 38.67 CELLS/uL, the “ABSOLUTE SEGMENTED NEUTROPHIL” value [3] was 433 CELLS/uL and the BASOPHIL [3] was 0%. For the same compound, the EOSINOPHIL [3] was 0%, the “ERYTHROCYTE COUNT” value [3] was 5.41 x10E6/uL and the HEMATOCRIT [3] was 33.4%. For the same compound, the HEMOGLOBIN [3] was 12.87 G/DL, the “LEUKOCYTE COUNT” value [3] was 5.23 x10E3/uL and the LYMPHOCYTE [3] was 91%. The “MEAN CORPUSCULAR HEMOGLOBIN” value [3] was 23.77 pg, the “MEAN CORPUSCULAR HEMOGLOBIN CONCENTRATION” value [3] was 38.53 G/DL and the “MEAN CORPUSCULAR VOLUME” value [3] was 61.77 fL. For the same compound, the MONOCYTE [3] was 0.67%, the NEUTROPHIL [3] was 8.33% and the “NUCLEATED RED BLOOD CELLS” value [3] was 0 /100WBC. The “PLATELET COUNT” value [3] was 1166.67 x10E3/uL, the “ALANINE AMINOTRANSFERASE” value [3] was 57 u/L and the ALBUMIN [3] was 4.57 G/DL. For the same compound, the “ALKALINE PHOSPHATASE” value [3] was 692 u/L, the “ASPARTATE AMINOTRANSFERASE” value [3] was 76.67 u/L and the “BLOOD UREA NITROGEN” value [3] was 7.67 mg/dL. The “CARBON DIOXIDE” value [3] was 30.67 mmol/L, the CHLORIDE [3] was 104 MEQ/L and the CHOLESTEROL [3] was 29 mg/dL. The “CREATINE PHOSPHOKINASE” value [3] was 225 u/L, the CREATININE [3] was 0.14 mg/dL and the GLUCOSE [3] was 135.67 mg/dL. For the same compound, the “LACTATE DEHYDROGENASE” value [3] was 89 u/L, the LIPASE [3] was 8 u/L and the PHOSPHORUS [3] was 10.6 mg/dL. The POTASSIUM [3] was 5.59 MEQ/L, the SODIUM [3] was 145.07 MEQ/L and the “TOTAL BILIRUBIN” value [3] was 0.17 mg/dL. The “TOTAL PROTEIN” value [3] was 6.37 G/DL, the “URIC ACID” value [3] was 0.63 mg/dL and the “ABSOLUTE BASOPHIL” value [4] was 0 CELLS/uL. The “ABSOLUTE EOSINOPHIL” value [4] was 0 CELLS/uL, the “ABSOLUTE LYMPHOCYTE” value [4] was 9250.67 CELLS/uL and the “ABSOLUTE MONOCYTE” value [4] was 86 CELLS/uL. The “ABSOLUTE SEGMENTED NEUTROPHIL” value [4] was 330 CELLS/uL, the BASOPHIL [4] was 0% and the EOSINOPHIL [4] was 0%. For the same compound, the “ERYTHROCYTE COUNT” value [4] was 6.52 x10E6/uL, the HEMATOCRIT [4] was 38.67% and the HEMOGLOBIN [4] was 14.53 G/DL. For the same compound, the “LEUKOCYTE COUNT” value [4] was 9.67 x10E3/uL, the LYMPHOCYTE [4] was 95.33% and the “MEAN CORPUSCULAR HEMOGLOBIN” value [4] was 22.3 pg. The “MEAN CORPUSCULAR HEMOGLOBIN CONCENTRATION” value [4] was 37.6 G/DL, the “MEAN CORPUSCULAR VOLUME” value [4] was 59.27 fL and the MONOCYTE [4] was 1%. The NEUTROPHIL [4] was 3.67%, the “NUCLEATED RED BLOOD CELLS” value [4] was 0 /100WBC and the “PLATELET COUNT” value [4] was 928.67 x10E3/uL. For the same compound, the “ALANINE AMINOTRANSFERASE” value [4] was 49 u/L, the ALBUMIN [4] was 5 G/DL and the “ALKALINE PHOSPHATASE” value [4] was 440.33 u/L. For the same compound, the “ASPARTATE AMINOTRANSFERASE” value [4] was 68.33 u/L, the “BLOOD UREA NITROGEN” value [4] was 7 mg/dL and the “CARBON DIOXIDE” value [4] was 27 mmol/L. The CHLORIDE [4] was 104.33 MEQ/L, the CHOLESTEROL [4] was 35 mg/dL and the “CREATINE PHOSPHOKINASE” value [4] was 233.67 u/L. The CREATININE [4] was 0.18 mg/dL, the GLUCOSE [4] was 155.67 mg/dL and the “LACTATE DEHYDROGENASE” value [4] was 123.33 u/L. It also gave an LIPASE [4] of 7.33 u/L, a PHOSPHORUS [4] of 11 mg/dL and a POTASSIUM [4] of 5.7 MEQ/L. The SODIUM [4] was 147.73 MEQ/L, the “TOTAL BILIRUBIN” value [4] was 0.13 mg/dL and the “TOTAL PROTEIN” value [4] was 7.03 G/DL. The “URIC ACID” value [4] was 1.5 mg/dL.
